The subject of assay [1] is KB nasopharyngeal carcinoma cells. The experiment in a line: Proliferation assay, KB human tumor cells. The note with it: 96 h, read-out: IC50 KB (+FA). The class given is cell-based.
For assay [2], the system named is NCI-IGROV1 ovarian cancer cells. Description: Proliferation assay, NCI-IGROV1 EOC cells. The class given is cell-based, human. The following applies: 96 h; for pIC50: Homo sapiens.
Assay [3] relates to PC43–10 CHO cells (human RFC). Description: Proliferation assay, RFC-expressing PC43–10 CHO cells. The note with it: PC43-10, 96 h, read-out: IC50 PC43–10 (RFC).
Assay [4] relates to KB human tumor cells. The experiment in a line: Nucleoside/AICA protection of KB cell proliferation. The following applies: AICA 320 μM.
The subject of assay [5] is NCI-IGROV1 EOC cells. The experiment in a line: Targeted metabolomics. It counts as cell-based, human. The following applies: 1 μM inhibitor, 48 h; for Increase in ZMP (AICAR) level: relative to control.
In assay [6] the test system is PC43–10 CHO cells (human RFC). The note with it: read-out: IC50 PC43–10 (RFC); 96 h; mean (SE); previously published ref 7, 40; cited from earlier work.
Assay [7] deals with KB human tumor cells. The note with it: AICA 320 μM, as previously reported ref 40; cited from earlier work.
In assay [8] the target is T1, human GARFTase (Homo sapiens, UniProt P22102).
T1 sequence (P22102 808-1010): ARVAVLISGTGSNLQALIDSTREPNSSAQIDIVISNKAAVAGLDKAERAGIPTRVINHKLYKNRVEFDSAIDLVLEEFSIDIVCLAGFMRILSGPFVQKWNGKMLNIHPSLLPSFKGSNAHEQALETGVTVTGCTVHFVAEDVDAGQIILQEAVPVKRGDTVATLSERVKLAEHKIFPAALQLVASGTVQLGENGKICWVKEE
The experiment in a line: In vitro spectrophotometric GARFTase assay with purified enzyme. The class given is biochemical. The note with it: ratio of Ki values.

The target in assay [9] is human AICARFTase/IMP cyclohydrolase (ATIC) (Homo sapiens, UniProt P31939). The experiment in a line: In vitro spectrophotometric AICARFTase. It counts as biochemical. The following applies: ratio of Ki values.
[10] abbreviates: read-out: IC50 NCI-IGROV1 (+FA).
Setting [11] is: read-out: IC50 NCI-IGROV1 (RFC/FRα/PCFT).

Results on nine compounds are retold here after publication PMC8058616 (Bioorganic & medicinal chemistry, 2021).

Each structure is given as a SMILES string. pIC50: −log10 of the molar value. Read-outs that look alike come from different tables or passages of the source.

human AICARFTase/IMP cyclohydrolase (ATIC), sequence (P31939 whole entry): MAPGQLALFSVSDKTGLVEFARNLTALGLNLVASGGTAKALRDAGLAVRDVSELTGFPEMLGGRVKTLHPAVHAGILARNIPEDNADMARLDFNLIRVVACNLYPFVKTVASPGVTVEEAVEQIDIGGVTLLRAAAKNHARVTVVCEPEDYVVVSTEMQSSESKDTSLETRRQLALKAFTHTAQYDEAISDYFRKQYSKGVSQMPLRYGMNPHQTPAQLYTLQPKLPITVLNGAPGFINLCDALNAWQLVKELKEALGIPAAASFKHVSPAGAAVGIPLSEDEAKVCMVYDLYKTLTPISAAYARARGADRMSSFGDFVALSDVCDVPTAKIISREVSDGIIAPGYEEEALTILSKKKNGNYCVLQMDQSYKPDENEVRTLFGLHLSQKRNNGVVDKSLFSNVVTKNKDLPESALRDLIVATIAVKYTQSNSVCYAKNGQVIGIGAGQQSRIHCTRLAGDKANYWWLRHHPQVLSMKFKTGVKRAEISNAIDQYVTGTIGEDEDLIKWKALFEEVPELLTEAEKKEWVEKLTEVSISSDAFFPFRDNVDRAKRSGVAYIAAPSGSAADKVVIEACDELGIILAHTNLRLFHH

Turning to `Nc1nc2sc(CCCc3csc(C(=O)N[C@@H](CCC(=O)O)C(=O)O)c3)cc2c(=O)[nH]1` [Compound 6, (4-(3-(2-amino-4-oxo-3,4-dihydrothieno[2,3-d]pyrimidin-6-yl)propyl)thiophene-2-carbonyl)-L-glutamic acid], the pIC50 in assay [1], in assay [2] (setting [10]) and in assay [3] was below 6.00 each time.
As for `Nc1nc2[nH]cc(CCCCc3ccc(C(=O)N[C@@H](CCC(=O)O)C(=O)O)cc3)c2c(=O)[nH]1` [AGF23], in [4], the “Protection by AICA” value is reported as “completely protected”.
For `Nc1nc2sc(CCCCc3ccc(C(=O)N[C@@H](CCC(=O)O)C(=O)O)s3)cc2c(=O)[nH]1` [Compound 3, (5-(4-(2-amino-4-oxo-3,4-dihydrothieno[2,3-d]pyrimidin-6-yl)butyl)thiophene-2-carbonyl)-L-glutamic acid], the pIC50 in assay [1], in assay [2] (setting [10]) and in assay [3] was below 6.00 in each case. For the same compound, the “fGAR level, % of control” value in assay [5] is ~ 50 % of control. For the same compound, the “Increase in ZMP (AICAR) level” value in assay [5] amounted to 2 fold.
With `Nc1nc2sc(CCCc3ccc(C(=O)N[C@@H](CCC(=O)O)C(=O)O)s3)cc2c(=O)[nH]1` [Compound 5, (5-(3-(2-amino-4-oxo-3,4-dihydrothieno[2,3-d]pyrimidin-6-yl)propyl)thiophene-2-carbonyl)-L-glutamic acid], the pIC50 in [1], in assay [2] (setting [10]) and in assay [3] was below 6.00 each time. Besides, the “fGAR level, % of control” value in assay [5] is given as ~ 75 % of control. In addition, the “Increase in ZMP (AICAR) level” value in assay [5] came out at 3 fold.
Consider `Nc1nc2sc(CCCCc3ccc(C(=O)N[C@@H](CCC(=O)O)C(=O)O)cc3)cc2c(=O)[nH]1` [Compound 2], for which the pIC50 in assay [6] is below 6.00. In assay [7], the “Protection by AICA” value was “incomplete protection”.
For `Nc1nc2sc(CCCCc3ccc(C(=O)N[C@@H](CCC(=O)O)C(=O)O)o3)cc2c(=O)[nH]1` [Compound 4, (5-(4-(2-amino-4-oxo-3,4-dihydrothieno[2,3-d]pyrimidin-6-yl)butyl)furan-2-carbonyl)-L-glutamic acid], the pIC50 in assay [1], in [2] (setting [10]), in [2] (setting [11]) and in assay [3] was below 6.00 each time.
For the compound `Nc1nc2sc(CCCc3cc(C(=O)N[C@@H](CCC(=O)O)C(=O)O)cs3)cc2c(=O)[nH]1` [Compound 7, (5-(3-(2-amino-4-oxo-3,4-dihydrothieno[2,3-d]pyrimidin-6-yl)propyl)thiophene-3-carbonyl)-L-glu-tamic acid], the pIC50 in [1], in [2] (setting [10]) and in assay [3] was below 6.00 in each case.
With `Nc1nc2sc(CCCCc3cc(C(=O)N[C@@H](CCC(=O)O)C(=O)O)cs3)cc2c(=O)[nH]1` [Compound 8, (5-(4-(2-amino-4-oxo-3,4-dihydrothieno[2,3-d]pyrimidin-6-yl)butyl)thiophene-3-carbonyl)-L-glutamic acid], the “Fold decreased GARFTase Ki over lead compound 2” value in assay [8] is listed as ~ 20 fold. In assay [9], the “Fold decreased AICARFTase Ki over lead compound 2” value is recorded as ~ 9 fold. In addition, the pIC50 in assay [1], in [2] (setting [10]), in [2] (setting [11]) and in assay [3] was below 6.00 throughout. Besides, the “IC50 NCI-IGROV1 (RFC/FRα/PCFT)” value in assay [2] (without folic acid, mean (SE)) is recorded as “inert”.
As for `Nc1nc2sc(CCCCc3csc(C(=O)N[C@@H](CCC(=O)O)C(=O)O)c3)cc2c(=O)[nH]1` [Compound 9, (4-(4-(2-amino-4-oxo-3,4-dihydrothieno[2,3-d]pyrimidin-6-yl)butyl)thiophene-2-carbonyl)-L-glutamic acid], the pIC50 in assay [1], in assay [2] (setting [10]) and in assay [3] was below 6.00 in each case.
